Laboratory results published in US9067871B2, “Aminotetraline derivatives, pharmaceutical compositions containing them, and their use in therapy” (ABBVIE DEUTSCHLAND GMBH & CO KG, priority 2009, dated 2015).
Where a name gives a salt, the structure may show the parent alone.

target: human GlyT1c transporter (Homo sapiens (Human), UniProt P48067); test: Radioligand binding assay using recombinant CHO cell membranes expressing human GlyT1; settings: human GlyT1c-expressing CHO cell membranes; hydrochloride; read-out: radioligand binding Kiapp
Excerpt: 2. Radioligand binding assays using recombinant CHO cell membranes expressing human GlyT1: […]

human GlyT1c transporter, sequence (P48067 whole entry): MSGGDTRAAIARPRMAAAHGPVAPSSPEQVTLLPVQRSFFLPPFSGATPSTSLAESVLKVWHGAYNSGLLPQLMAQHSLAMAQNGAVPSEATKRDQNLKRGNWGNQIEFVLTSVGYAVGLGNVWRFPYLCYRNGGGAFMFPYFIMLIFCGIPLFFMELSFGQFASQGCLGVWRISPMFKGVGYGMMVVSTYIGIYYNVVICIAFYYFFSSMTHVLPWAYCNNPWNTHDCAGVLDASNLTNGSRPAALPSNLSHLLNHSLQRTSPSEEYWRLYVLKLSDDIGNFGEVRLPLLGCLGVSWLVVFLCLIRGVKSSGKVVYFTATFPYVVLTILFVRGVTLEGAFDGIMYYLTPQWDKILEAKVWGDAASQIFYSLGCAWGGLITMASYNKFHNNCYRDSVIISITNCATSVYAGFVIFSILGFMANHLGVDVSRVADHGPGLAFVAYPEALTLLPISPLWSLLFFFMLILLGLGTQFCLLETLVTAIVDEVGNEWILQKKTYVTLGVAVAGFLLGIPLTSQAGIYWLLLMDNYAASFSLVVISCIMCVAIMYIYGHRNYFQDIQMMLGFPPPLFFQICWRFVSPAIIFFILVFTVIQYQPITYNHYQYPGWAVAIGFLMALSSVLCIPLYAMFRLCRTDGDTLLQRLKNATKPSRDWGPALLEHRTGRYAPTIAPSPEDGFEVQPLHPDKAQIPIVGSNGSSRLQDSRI

| SMILES | Ki |
| --- | --- |
| O=S(=O)(CC1CC1)NCCOc1ccc2c(c1)C(Cc1ccccc1)C(N1CCC1)CC2 (stereo not drawn) [Example 142, N-(2-{[7-(Azetidin-1-yl)-8-benzyl-5,6,7,8-tetrahydronaphthalen-2-yl]oxy}ethyl)-1-cyclopropylmethanesulfonamide hydrochloride] | ≤ 100 nM |

same assay, conditions: human GlyT1c-expressing CHO cell membranes; read-out: radioligand binding Kiapp

| SMILES | Ki |
| --- | --- |
| O=S(=O)(CC1CC1)NCCOc1ccc2c(c1)C(Cc1ccc(Cl)c(Cl)c1)C(N1CCC(F)C1)CC2 (stereo not drawn) [Example 134, 1-Cyclopropyl-N-[2-({8-(3,4-dichlorobenzyl)-7-[3-fluoropyrrolidin-1-yl]-5,6,7,8-tetrahydronaphthalen-2-yl}oxy)ethyl]methanesulfonamide] | ≤ 1000 nM |
| O=S(=O)(CC1CC1)NCCOc1ccc2c(c1)C(Cc1ccc(Cl)c(Cl)c1)C(N1CCC1)CC2 (stereo not drawn) [Example 135, N-(2-{[7-(Azetidin-1-yl)-8-(3,4-dichlorobenzyl)-5,6,7,8-tetrahydronaphthalen-2-yl]oxy}ethyl)-1-cyclopropylmethanesulfonamide] | ≤ 100 nM |
| O=S(=O)(CC1CC1)NCCOc1ccc2c(c1)C(Cc1ccccc1)C(N1CCC(F)C1)CC2 (stereo not drawn) [Example 136, N-[2-({8-Benzyl-7-[3-fluoropyrrolidin-1-yl]-5,6,7,8-tetrahydronaphthalen-2-yl}oxy)ethyl]-1-cyclopropylmethanesulfonamide hydrochloride] | ≤ 100 nM |
| CNC1CCc2ccc(OCCNS(=O)(=O)CC3CC3)cc2C1Cc1ccccc1 (stereo not drawn) [Example 137, N-(2-{[8-Benzyl-7-(methylamino)-5,6,7,8-tetrahydronaphthalen-2-yl]oxy}ethyl)-1-cyclopropylmethanesulfonamide hydrochloride] | ≤ 10 nM |
| O=S(=O)(CC1CC1)NCCOc1ccc2c(c1)C(Cc1cccc(F)c1)C(N1CCCC1)CC2 (stereo not drawn) [Example 138, 1-Cyclopropyl-N-(2-{[8-(3-fluorobenzyl)-7-(pyrrolidin-1-yl)-5,6,7,8-tetrahydronaphthalen-2-yl]oxy}ethyl)methanesulfonamide hydrochloride] | ≤ 10 nM |
| O=S(=O)(CC1CC1)NCCOc1ccc2c(c1)C(Cc1cccc(F)c1)C(N1CCC1)CC2 (stereo not drawn) [Example 139, N-(2-{[7-(Azetidin-1-yl)-8-(3-fluorobenzyl)-5,6,7,8-tetrahydronaphthalen-2-yl]oxy}ethyl)-1-cyclopropylmethanesulfonamide hydrochloride] | ≤ 10 nM |
| Cn1cnc(S(=O)(=O)NCCOc2ccc3c(c2)C(Cc2cccc(F)c2)C(N2CCCC2)CC3)c1 (stereo not drawn) [Example 140, N-(2-{[8-(3-Fluorobenzyl)-7-(pyrrolidin-1-yl)-5,6,7,8-tetrahydronaphthalen-2-yl]oxy}ethyl)-1-methyl-1H-imidazole-4-sulfonamide hydrochloride] | ≤ 10 nM |
| Cn1cnc(S(=O)(=O)NCCOc2ccc3c(c2)C(Cc2cccc(F)c2)C(N2CCC2)CC3)c1 (stereo not drawn) [Example 141, N-(2-{[7-(Azetidin-1-yl)-8-(3-fluorobenzyl)-5,6,7,8-tetrahydronaphthalen-2-yl]oxy}ethyl)-1-methyl-1H-imidazole-4-sulfonamide hydrochloride] | ≤ 10 nM |
| Cn1cnc(S(=O)(=O)NCCOc2ccc3c(c2)C(Cc2ccccc2)C(N2CCC2)CC3)c1 (stereo not drawn) [Example 145, N-(2-{[7-(Azetidin-1-yl)-8-benzyl-5,6,7,8-tetrahydronaphthalen-2-yl]oxy}ethyl)-1-methyl-1H-imidazole-4-sulfonamide] | ≤ 10 nM |
| O=S(=O)(NCCOc1ccc2c(c1)C(Cc1ccccc1)C(N1CCC1)CC2)C1CCC1 (stereo not drawn) [Example 147, N-(2-{[7-(Azetidin-1-yl)-8-benzyl-5,6,7,8-tetrahydronaphthalen-2-yl]oxy}ethyl)cyclobutanesulfonamide] | ≤ 100 nM |
| CCCS(=O)(=O)NCCOc1ccc2c(c1)C(Cc1ccccc1)C(N1CCC1)CC2 (stereo not drawn) [Example 148, Propane-1-sulfonic acid [2-(7-azetidin-1-yl-8-benzyl-5,6,7,8-tetrahydro-naphthalen-2-yloxy)-ethyl]-amide] | ≤ 100 nM |
| Cn1ccc(S(=O)(=O)NCCOc2ccc3c(c2)C(Cc2cccc(F)c2)C(N2CCCC2)CC3)c1 (stereo not drawn) [Example 149, N-(2-{[8-(3-Fluorobenzyl)-7-(pyrrolidin-1-yl)-5,6,7,8-tetrahydronaphthalen-2-yl]oxy}ethyl)-1-methyl-1H-pyrrole-3-sulfonamide hydrochloride] | ≤ 100 nM |
| NC1CCc2ccc(OCCNS(=O)(=O)CC3CC3)cc2C1Cc1cc(F)cc(Cl)c1 (stereo not drawn) [Example 150, N-(2-{[7-Amino-8-(3-chloro-5-fluorobenzyl)-5,6,7,8-tetrahydronaphthalen-2-yl]oxy}ethyl)-1-cyclopropylmethanesulfonamide hydrochloride] | ≤ 10 nM |
| Cn1cnc(S(=O)(=O)NCCOc2ccc3c(c2)C(Cc2cc(F)cc(Cl)c2)C(N)CC3)c1 (stereo not drawn) [Example 151, N-(2-{[7-Amino-8-(3-chloro-5-fluorobenzyl)-5,6,7,8-tetrahydronaphthalen-2-yl]oxy}ethyl)-1-methyl-1H-imidazole-4-sulfonamide hydrochloride] | ≤ 10 nM |
| Cn1cnc(S(=O)(=O)NCCOc2ccc3c(c2)C(Cc2ccccc2)C(N2CCC(F)C2)CC3)c1 (stereo not drawn) [Example 152, N-[2-({8-Benzyl-7-[3-fluoropyrrolidin-1-yl]-5,6,7,8-tetrahydronaphthalen-2-yl}oxy)ethyl]-1-methyl-1H-imidazole-4-sulfonamide hydrochloride] | ≤ 10 nM |
| Cn1cnc(S(=O)(=O)NCCOc2ccc3c(c2)C(Cc2cccc(C#N)c2)C(N2CCCC2)CC3)c1 (stereo not drawn) [Example 153, N-(2-{[8-(3-Cyanobenzyl)-7-(pyrrolidin-1-yl)-5,6,7,8-tetrahydronaphthalen-2-yl]oxy}ethyl)-1-methyl-1H-imidazole-4-sulfonamide] | ≤ 100 nM |
| CC(C)NC1CCc2ccc(OCCNS(=O)(=O)c3cn(C)cn3)cc2C1Cc1cccc(C#N)c1 (stereo not drawn) [Example 154, N-(2-{[8-(3-Cyanobenzyl)-7-(propan-2-ylamino)-5,6,7,8-tetrahydronaphthalen-2-yl]oxy}ethyl)-1-methyl-1H-imidazole-4-sulfonamide hydrochloride] | ≤ 100 nM |
| N#Cc1cccc(CC2c3cc(OCCNS(=O)(=O)CC4CC4)ccc3CCC2N2CCCC2)c1 (stereo not drawn) [Example 155, N-(2-{[8-(3-Cyanobenzyl)-7-(pyrrolidin-1-yl)-5,6,7,8-tetrahydronaphthalen-2-yl]oxy}ethyl)-1-cyclopropylmethanesulfonamide hydrochloride] | ≤ 1000 nM |
| CC(C)NC1CCc2ccc(OCCNS(=O)(=O)CC3CC3)cc2C1Cc1cccc(C#N)c1 (stereo not drawn) [Example 156, N-(2-{[8-(3-Cyanobenzyl)-7-(propan-2-ylamino)-5,6,7,8-tetrahydronaphthalen-2-yl]oxy}ethyl)-1-cyclopropylmethanesulfonamide hydrochloride] | ≤ 1000 nM |
| CNC1CCc2ccc(OCCNS(=O)(=O)CC3CC3)cc2C1Cc1cc(F)cc(Cl)c1 (stereo not drawn) [Example 158, N-(2-{[8-(3-Chloro-5-fluorobenzyl)-7-(methylamino)-5,6,7,8-tetrahydronaphthalen-2-yl]oxy}ethyl)-1-cyclopropylmethanesulfonamide hydrochloride] | ≤ 10 nM |
| O=S(=O)(CC1CC1)NCCOc1ccc2c(c1)C(Cc1cc(F)cc(Cl)c1)C(N1CCC1)CC2 (stereo not drawn) [Example 159, N-(2-{[7-(Azetidin-1-yl)-8-(3-chloro-5-fluorobenzyl)-5,6,7,8-tetrahydronaphthalen-2-yl]oxy}ethyl)-1-cyclopropylmethanesulfonamide (2E)-but-2-enedioate] | ≤ 100 nM |
| Cn1cnc(S(=O)(=O)NCCOc2ccc3c(c2)C(Cc2cc(F)cc(Cl)c2)C(N2CCC2)CC3)c1 (stereo not drawn) [Example 160, N-(2-{[7-(Azetidin-1-yl)-8-(3-chloro-5-fluorobenzyl)-5,6,7,8-tetrahydronaphthalen-2-yl]oxy}ethyl)-1-methyl-1H-imidazole-4-sulfonamide(2E)-but-2-enedioate] | ≤ 10 nM |
| CNC1CCc2ccc(OCCNS(=O)(=O)CC3CC3)cc2C1Cc1ccc(F)cc1 (stereo not drawn) [Example 161, 1-Cyclopropyl-N-(2-{[8-(4-fluorobenzyl)-7-(methylamino)-5,6,7,8-tetrahydronaphthalen-2-yl]oxy}ethyl)methanesulfonamide] | ≤ 10 nM |
| Cc1cccc(CC2c3cc(OCCNS(=O)(=O)c4cn(C)cn4)ccc3CCC2N2CCCC2)c1 (stereo not drawn) [Example 163, 1-Methyl-N-(2-{[8-(3-methylbenzyl)-7-(pyrrolidin-1-yl)-5,6,7,8-tetrahydronaphthalen-2-yl]oxy}ethyl)-1H-imidazole-4-sulfonamide] | ≤ 10 nM |
| COc1cccc(CC2c3cc(OCCNS(=O)(=O)c4cn(C)cn4)ccc3CCC2N2CCCC2)c1 (stereo not drawn) [Example 164, N-(2-{[8-(3-Methoxybenzyl)-7-(pyrrolidin-1-yl)-5,6,7,8-tetrahydronaphthalen-2-yl]oxy}ethyl)-1-methyl-1H-imidazole-4-sulfonamide hydrochloride] | ≤ 10 nM |
| Cn1cnc(S(=O)(=O)NCCOc2ccc3c(c2)C(Cc2cccc(C(F)(F)F)c2)C(N)CC3)c1 (stereo not drawn) [Example 165, 1-Methyl-1H-imidazole-4-sulfonic acid {2-[7-amino-8-(3-trifluoromethyl-benzyl)-5,6,7,8-tetrahydro-naphthalen-2-yloxy]-ethyl}-amide hydrochloride] | ≤ 10 nM |
| Cn1cc(S(=O)(=O)NCc2ccc3c(c2)C(Cc2ccccc2)C(N)CC3)cn1 (stereo not drawn) [Example 172, N-[(7-Amino-8-benzyl-5,6,7,8-tetrahydronaphthalen-2-yl)methyl]-1-methyl-1H-pyrazole-4-sulfonamide hydrochloride] | ≤ 10 nM |
| Cn1cnc(S(=O)(=O)NCc2ccc3c(c2)C(Cc2ccccc2)C(N)CC3)c1 (stereo not drawn) [Example 173, N-[(7-Amino-8-benzyl-5,6,7,8-tetrahydronaphthalen-2-yl)methyl]-1-methyl-1H-imidazole-4-sulfonamide hydrochloride] | ≤ 10 nM |
| NC1CCc2ccc(CNS(=O)(=O)C3CCC3)cc2C1Cc1ccc(F)cc1 (stereo not drawn) [Example 174, N-{[7-Amino-8-(4-fluorobenzyl)-5,6,7,8-tetrahydronaphthalen-2-yl]methyl}cyclobutanesulfonamide hydrochloride] | ≤ 1000 nM |
